Converted amounts (≈) assume the structure as drawn.
How the values were obtained:
Format in all cases: cell-based
[1] = test system: Candida albicans ATCC 24433; experiment: Antifungal MIC by broth dilution (CLSI M27-A2), RPMI 1640 with MOPS; settings: broth macro-dilution, end point after 48 hours, MIC = 80% inhibition vs growth control (Amphotericin B: complete inhibition); for MIC: Candida albicans, ATCC24433, read-out: MIC C. albicans ATCC 24433
Experimental: (§1) The compounds of Formula 1 were tested for antifungal activity against Candida albicans, Aspergillus niger and Fusarium proliferatum. In vitro evaluation of antifungal activity was performed by determining the minimum inhibitory concentration (MIC) following standard methods (CLSI: Reference method for broth dilution antifungal susceptibility testing of yeasts; Approved standard, second edition M27-A2, 2002; CLSI: Reference method for broth dilution antifungal susceptibility testing of filamentous fungi; Approved standard M38-A, 2002). Anti-fungal susceptibility testing of these compounds of Formula 1 was done by broth dilution method using RPMI 1640 medium with MOPS buffer. Known anti-fungal agents like Fluconazole and Amphotericin-B were used as standards. End points were determined after 48 hours visually and by using spectrophotometer wherever necessary.

[2] = test system: Aspergillus niger ATCC 16404; experiment: Antifungal MIC by broth dilution (CLSI M38-A), RPMI 1640 with MOPS; settings: broth macro-dilution, end point after 48 hours, MIC = 80% inhibition vs growth control (Amphotericin B: complete inhibition); for MIC: Aspergillus niger, ATCC16404
Experimental: as §1

[3] = test system: Fusarium proliferatum ATCC 10052; experiment: as above; settings: broth macro-dilution, end point after 48 hours, MIC = 80% inhibition vs growth control (Amphotericin B: complete inhibition); for MIC: Fusarium proliferatum, ATCC10052, read-out: MIC F. proliferatum ATCC 10052
Experimental: as §1

SMILES	MIC C. albicans ATCC 24433 [1] [mg/L]	MIC A. niger ATCC 16404 [2] [mg/L]	MIC F. proliferatum ATCC 10052 [3] [mg/L]	MIC [1] [mg/L]	MIC [2] [mg/L]	MIC [3] [mg/L]
C[C@@H]1[C@H](O)[C@@H](C)/C=C/C=C/C=C/C=C/C=C/C=C/C=C/[C@H](O[C@@H]2O[C@H](C)[C@@H](O)[C@H](N)[C@@H]2O)C[C@@H]2O[C@](O)(C[C@@H](O)C[C@@H](O)[C@H](O)CC[C@@H](O)C[C@@H](O)CC(=O)O[C@H]1C)C[C@H](O)[C@H]2C(=O)O [Amphotericin B, reference compound]	0.25 (≈ 0.271 µM)	1 (≈ 1.08 µM)	2 (≈ 2.16 µM)	–	–	–
CCOC(=O)c1cc(CCCOCc2ccccc2)sc1NCC(O)(Cn1cncn1)c1ccc(F)cc1F (stereo not drawn) [Compound 1f, Ethyl 5-(3-benzyloxypropyl)-2-[2-(2,4-difluorophenyl)-2-hydroxy-3-[1,2,4]triazol-1-yl-propylamino]-thiophene-3-carboxylate]	–	–	–	> 4	> 4	> 4
CCOC(=O)c1c(NCC(O)(Cn2cncn2)c2ccc(F)cc2F)sc2c1CCC2 (stereo not drawn) [Compound 1g, Ethyl 2-[2-(2,4-difluorophenyl)-2-hydroxy-3-[1,2,4]triazol-1-yl-propylamino]-5,6-dihydro-4H-cyclopenta[b]thiophene-3-carboxylate]	–	–	–	2 (≈ 4.46 µM)	> 8	> 8
CCOC(=O)c1c(NCC(O)(Cn2cncn2)c2ccc(F)cc2F)sc2c1CCCC2 (stereo not drawn) [Compound 1h, Ethyl 2-[2-(2,4-difluorophenyl)-2-hydroxy-3-[1,2,4]triazol-1-yl-propylamino]-4,5,6,7-tetrahydro-benzo[b]thiophene-3-carboxylate]	–	–	–	4 (≈ 8.65 µM)	> 4	> 4
CCOC(=O)c1c(NCC(O)(Cn2cncn2)c2ccc(F)cc2F)sc2c1CCCCC2 (stereo not drawn) [Compound 1i, Ethyl 2-[2-(2,4-difluorophenyl)-2-hydroxy-3-[1,2,4]triazol-1-yl-propylamino]-5,6,7,8-tetrahydro-4H-cyclohepta[b]thiophene-3-carboxylate]	–	–	–	8 (≈ 16.8 µM)	> 8	> 8
Cc1cc(C#N)c(NCC(O)(Cn2cncn2)c2ccc(F)cc2F)s1 (stereo not drawn) [Compound 1k, 2-[2-(2,4-Difluorophenyl)-2-hydroxy-3-[1,2,4]triazol-1-yl-propylamino]-5-methyl-thiophene-3-carbonitrile]	–	–	–	0.5 (≈ 1.33 µM)	> 32	> 32
CCc1cc(C#N)c(NCC(O)(Cn2cncn2)c2ccc(F)cc2F)s1 (stereo not drawn) [Compound 1l, 2-[2-(2,4-Difluorophenyl)-2-hydroxy-3-[1,2,4]triazol-1-yl-propylamino]-5-ethyl-thiophene-3-carbonitrile]	–	–	–	0.25 (≈ 0.642 µM)	> 16	> 16
CCCc1cc(C#N)c(NCC(O)(Cn2cncn2)c2ccc(F)cc2F)s1 (stereo not drawn) [Compound 1m, 2-[2-(2,4-Difluorophenyl)-2-hydroxy-3-[1,2,4]triazol-1-yl-propylamino]-5-propyl-thiophene-3-carbonitrile]	–	–	–	0.12 (≈ 0.297 µM)	> 32	> 32
CCCCCc1cc(C#N)c(NCC(O)(Cn2cncn2)c2ccc(F)cc2F)s1 (stereo not drawn) [Compound 1n, 2-[2-(2,4-Difluorophenyl)-2-hydroxy-3-[1,2,4]triazol-1-yl-propylamino]-5-pentyl-thiophene-3-carbonitrile]	–	–	–	0.25 (≈ 0.579 µM)	> 4	> 4
N#Cc1c(NCC(O)(Cn2cncn2)c2ccc(F)cc2F)sc2c1CCC2 (stereo not drawn) [Compound 1o, 2-[2-(2,4-Difluorophenyl)-2-hydroxy-3-[1,2,4]triazol-1-yl-propylamino]-5,6-dihydro-4H-cyclopenta[b]thiophene-3-carbonitrile]	–	–	–	0.5 (≈ 1.25 µM)	> 16	> 16
OC(Cn1cncn1)(Cn1cncn1)c1ccc(F)cc1F [Fluconazole]	–	–	–	1 (≈ 3.27 µM)	128 (≈ 418 µM)	> 128

Continued, values first:

MIC C. albicans ATCC 24433 [1] [mg/L]	MIC A. niger ATCC 16404 [2] [mg/L]	MIC F. proliferatum ATCC 10052 [3] [mg/L]	MIC [1] [mg/L]	MIC [2] [mg/L]	MIC [3] [mg/L]	SMILES
–	–	–	2 (≈ 4.73 µM)	> 16	> 16	CCOC(=O)c1cc(C)sc1NCC(O)(Cn1cncn1)c1ccc(F)cc1F (stereo not drawn) [Compound 1a, Ethyl 2-[2-(2,4-difluorophenyl)-2-hydroxy-3-[1,2,4]triazol-1-yl-propylamino]-5-methyl-thiophene-3-carboxylate]
–	–	–	2 (≈ 4.58 µM)	> 4	> 4	CCOC(=O)c1cc(CC)sc1NCC(O)(Cn1cncn1)c1ccc(F)cc1F (stereo not drawn) [Compound 1b, Ethyl 2-[2-(2,4-difluorophenyl)-2-hydroxy-3-[1,2,4]triazol-1-yl-propylamino]-5-ethyl-thiophene-3-carboxylate]
–	–	–	2 (≈ 4.44 µM)	> 16	> 16	CCCc1cc(C(=O)OCC)c(NCC(O)(Cn2cncn2)c2ccc(F)cc2F)s1 (stereo not drawn) [Compound 1c, Ethyl 2-[2-(2,4-difluorophenyl)-2-hydroxy-3-[1,2,4]triazol-1-yl-propylamino]-5-propyl-thiophene-3-carboxylate]
–	–	–	> 8	> 8	> 8	CCCCCCCc1cc(C(=O)OCC)c(NCC(O)(Cn2cncn2)c2ccc(F)cc2F)s1 (stereo not drawn) [Compound 1d, Ethyl 2-[2-(2,4-difluorophenyl)-2-hydroxy-3[1,2,4]triazol-1-yl-propylamino]-5-heptyl-thiophene-3-carboxylate]
–	–	–	> 4	> 4	> 4	CCCCCCCCCCc1cc(C(=O)OCC)c(NCC(O)(Cn2cncn2)c2ccc(F)cc2F)s1 (stereo not drawn) [Compound 1e, Ethyl 5-n-decyl-2-[2-(2,4-difluorophenyl)-2-hydroxy-3-[1,2,4]triazol-1-yl-propylamino]-thiophene-3-carboxylate]
–	–	–	> 2	> 2	> 2	CCCCCCc1sc(NCC(O)(Cn2cncn2)c2ccc(F)cc2F)c(C(=O)OCC)c1C (stereo not drawn) [Compound 1j, Ethyl 2-[2-(2,4-difluorophenyl)-2-hydroxy-3-[1,2,4]triazol-1-yl-propylamino]-5-hexyl-4-methyl-thiophene-3-carboxylate]

— patent publication US8236840B2, “Thiopene containing analogues of fluconazole as antifungal agents and process for their preparation” (Council of Scientific & Industrial Research, priority 2008, dated 2012)
